# According to US5208217A, “Hepatospecific insulin analogues” (Mount Sinai School of Medicine of The City University of …, priority 1991, dated 1993):
# Legend:
# [1] = tested on: isolated rat adipocytes; assay: Lipogenesis assay: conversion of [3-3H] glucose into lipids; type: cell-based; conditions: FIG. 3
# Description: In this Example the materials used and the analytical procedures followed are those found in Kitagawa et al., Biochemistry, 23: 1405-1413 (1984). ^125 I-insulin for receptor binding studies and [3-^3 H] glucose for lipogenesis were obtained from DuPont NEN Research Products. Cellulose acetate membrane filters, 0.2 μm pore size, were products of Sartorius. Glass-fiber filters, Type GFC, were from Whatman. Collagenase, Type II crude, was obtained from Worthington. The scintillation fluids Filtron-X®, Hydrofluor® and Soluscint-O® were products of National Diagnostics. Crystalline bovine insulin was from Sigma, and fatty-acid free bovine serum albumin from Boehringer - Mannheim Biochemicals.
# The data points represent the mean triplicate determinations in representative assays performed four times.
# [2] = tested on: FAO cells (well differentiated hepatoma cell line); assay: Inhibition of gluconeogenesis assay (glucose secretion into the medium); type: cell-based; conditions: FIG. 4
# Experimental: This assay was carried out on confluent monolayers of a well differentiated hepatoma cell line (Lauris et al. Endocrinology 118:2519-2524 (1986)) in which glucose production was monitored with a commercial glucose oxidase kit (Sigma kit no. 510-A, Sigma Technical Bulletin 510, 1983). Inhibition of glucose secretion into the medium was determined as a function of the concentration of insulin or insulin analogue, and the relative potency of the analogue was defined as the ratio of the concentration of insulin to analogue required to produce half-maximal inhibition of glucose production. The cell culture and glucose production was carried out as described by Lauris et al., supra.
# The potency of the synthetic insulin in inhibiting gluconeogenesis is calculated to be about 90% relative to the natural hormone.
substance,measurement,setting,value
[Trp^14 -A] insulin,Concentration of agonist producing half-maximal stimulation of lipogenesis compared with bovine insulin,[1],about twice the concentration
same,Maximum stimulation of lipogenesis compared with bovine insulin,[1],same maximum stimulation
same,Concentration of agonist producing half-maximal inhibition of gluconeogenesis compared with insulin,[2],approximately the same concentration
same,Maximum inhibition of gluconeogenesis compared with insulin,[2],same maximum inhibition
